Reference: patent US10913738B2 (BRISTOL-MYERS SQUIBB COMPANY, priority 2017, dated 2021)
Read-outs that look alike come from different tables or passages of the source.

What was measured:
[1] = molecular target: T1, His-GST-TVMV-hRIPK1(1-324) (Homo sapiens, UniProt Q13546); test: RIPK1 HTRF Binding Assay
T1 construct: The coding region of human RIPK1(1-324) flanked by NdeI site at 5′ end; made in house; host or cells: Spodoptera frugiperda (Sf9) insect cells, baculovirus
T1 sequence (Q13546 1-324): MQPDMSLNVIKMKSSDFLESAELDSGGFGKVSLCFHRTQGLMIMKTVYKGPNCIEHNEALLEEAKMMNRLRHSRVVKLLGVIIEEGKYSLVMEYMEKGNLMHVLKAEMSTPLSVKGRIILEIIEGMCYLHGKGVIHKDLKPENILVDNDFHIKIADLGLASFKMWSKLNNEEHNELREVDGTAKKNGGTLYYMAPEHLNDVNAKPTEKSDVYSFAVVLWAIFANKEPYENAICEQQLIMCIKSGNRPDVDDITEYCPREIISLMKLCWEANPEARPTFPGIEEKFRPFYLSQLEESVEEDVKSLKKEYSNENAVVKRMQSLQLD

[2] = test system: MLKL phosphorylation in HT29-L23 human colorectal adenocarcinoma cells; test: MLKL Phosphorylation High-Content Assay; type: cell-based; conditions: Homo sapiens
How it was run: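 IC50 and Ymax obtained by 4-parameter logistic fitting of MLKL phosphorylation, measured as mean circ-ring average intensity ratio from high-content images. Staining used an anti-phospho-S358 MLKL antibody overnight at 4° C., following six-hour cell incubation at 37° C.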

[3] = x marks IC50 class <20 nM, read-out: RIPK1 HTRF binding <20 nM
[4] = x marks IC50 class <20 nM, read-out: pMLKL cell activity <20 nM
[5] = x marks IC50 class 20-200 nM, read-out: pMLKL cell activity 20-200 nM
[6] = x marks IC50 class 20-200 nM, read-out: RIPK1 HTRF binding 20-200 nM
[7] = x marks IC50 class >200 nM, read-out: pMLKL cell activity >200 nM

`COc1ncc(-c2ccn3nc(N)nc3c2)cc1C(=O)NCc1ccccc1SC(C)C` [Example 143, 5-{2-amino-[1,2,4]triazolo[1,5-a]pyridin-7-yl}-2-methoxy-N-{[2-(propan-2-ylsulfanyl)phenyl]methyl}pyridine-3-carboxamide] showed an IC50 [1, 3] of under 20 nM and an IC50 [2, 4] of under 20 nM.
Compound `COc1ncc(C(=O)NCc2c(F)cccc2OCC2CC2)cc1-c1ccn2nc(N)nc2c1` [Example 26, 5-{2-Amino-[1,2,4]triazolo[1,5-a]pyridin-7-yl}-N-{[2-(cyclopropylmethoxy)-6-fluorophenyl]methyl}-6-methoxypyridine-3-carboxamide] has an IC50 [1, 3] of under 20 nM and an IC50 [2, 5] of 20 to 200 nM.
In the case of `COc1nc(C)c(-c2ccn3nc(N)nc3c2)cc1C(=O)NCc1ccccc1CN1CCCCC1` [Example 358, 5-(2-amino-[1,2,4]triazolo[1,5-a]pyridin-7-yl)-2-methoxy-6-methyl-N-(2-(piperidin-1-ylmethyl)benzyl)nicotinamide], the IC50 [1, 6] is reported as 20 to 200 nM and the IC50 [2, 7] is reported as over 200 nM.
`COc1ncc(-c2ccn3nc(N)nc3c2)cc1C(=O)NCc1cnccc1OC1CCCC1` [Example 21, 5-{2-Amino-[1,2,4]triazolo[1,5-a]pyridin-7-yl}-N-{[4-(cyclopentyloxy)pyridin-3-yl]methyl}-2-methoxypyridine-3-carboxamide] gave an IC50 [1, 3] of under 20 nM and an IC50 [2, 5] of 20 to 200 nM.
In the case of `[2H]C([2H])([2H])[C@H](NC(=O)c1cc(-c2ccn3nc(N)nc3c2)cnc1C)c1cc(C(F)(F)F)ccc1F` [Example 302, (S)-5-(2-amino-[1,2,4]triazolo[1,5-a]pyridin-7-yl)-N-(1-(2-fluoro-5-(trifluoromethyl)phenyl)ethyl-2,2,2-H3)-2-methylnicotinamide], the IC50 [1, 3] is reported as under 20 nM and the IC50 [2, 5] is reported as 20 to 200 nM.
Compound `Cc1ncc(-c2ccn3nc(N)nc3c2)cc1C(=O)NCc1c(OCC2CC2)ccc(F)c1F` [Example 304, 5-(2-amino-[1,2,4]triazolo[1,5-a]pyridin-7-yl)-N-(6-(cyclopropylmethoxy)-2,3-difluorobenzyl)-2-methylnicotinamide] has an IC50 [1, 3] of under 20 nM and an IC50 [2, 5] of 20 to 200 nM.
Compound `Cc1cnc(-c2ccn3nc(N)nc3c2)cc1C(=O)NCCC(C)c1ccccc1` (stereo not shown) [Example 393, 2-(2-amino-[1,2,4]triazolo[1,5-a]pyridin-7-yl)-5-methyl-N-(3-phenylbutyl)isonicotinamide] has an IC50 [1, 3] of under 20 nM and an IC50 [2, 5] of 20 to 200 nM.
In the case of `Nc1nc2cc(-c3cc(C(=O)Nc4cnn(Cc5ccccc5)c4)c4cc(F)ccc4n3)ccn2n1` [Example 68, 2-{2-Amino-[1,2,4]triazolo[1,5-a]pyridin-7-yl}-N-(1-benzyl-1H-pyrazol-4-yl)-6-fluoroquinoline-4-carboxamide], the IC50 [1, 6] is reported as 20 to 200 nM and the IC50 [2, 5] is reported as 20 to 200 nM.
Compound `Cc1ncc(-c2ccn3nc(N)nc3c2)cc1C(=O)NC(C)c1cc(C(F)(F)F)ccc1F` (single isomer, unassigned) [Example 99-1, 5-{2-amino-[1,2,4]triazolo[1,5-a]pyridin-7-yl}-N-{1-[2-fluoro-5-(trifluoromethyl)phenyl]ethyl}-2-methylpyridine-3-carboxamide] has an IC50 [1, 6] of 20 to 200 nM and an IC50 [2, 5] of 20 to 200 nM.
`COc1ncc(-c2ccn3nc(N)nc3c2)cc1C(=O)NCc1c[nH]nc1-c1ccccc1` [Example 152, 5-{2-amino-[1,2,4]triazolo[1,5-a]pyridin-7-yl}-2-methoxy-N-[(3-phenyl-1H-pyrazol-4-yl)methyl]pyridine-3-carboxamide] showed an IC50 [1, 6] of 20 to 200 nM and an IC50 [2, 5] of 20 to 200 nM.
`Cc1ncc(-c2ccn3nc(N)nc3c2)cc1C(=O)NCc1cccnc1OCC1CCCC1` [Example 231, 5-{2-amino-[1,2,4]triazolo[1,5-a]pyridin-7-yl}-N-{[2-(cyclopentylmethoxy)pyridin-3-yl]methyl}-2-methylpyridine-3-carboxamide] was tested, and the IC50 [1, 6] was 20 to 200 nM and the IC50 [2, 7] was over 200 nM.
Compound `Cc1nc(C)c(-c2ccn3nc(N)nc3c2)cc1C(=O)NCC(O)COc1ccccc1` (stereo not shown) [Example 172, 5-{2-amino-[1,2,4]triazolo[1,5-a]pyridin-7-yl}-N-(2-hydroxy-3-phenoxypropyl)-2,6-dimethylpyridine-3-carboxamide] has an IC50 [1, 3] of under 20 nM and an IC50 [2, 5] of 20 to 200 nM.
`CC(CCNC(=O)c1cc(-c2ccn3nc(N)nc3c2)cnc1N)c1ccccc1` (stereo not shown) [Example 65, 2-Amino-5-{2-amino-[1,2,4]triazolo[1,5-a]pyridin-7-yl}-N-(3-phenylbutyl)pyridine-3-carboxamide] gave an IC50 [1, 3] of under 20 nM and an IC50 [2, 5] of 20 to 200 nM.
`Cc1cnc(-c2ccn3nc(N)nc3c2)nc1C(=O)NCC[C@H](O)c1ccc(Cl)cc1` [Example 410, (S)-2-(2-amino-[1,2,4]triazolo[1,5-a]pyridin-7-yl)-N-(3-(4-chlorophenyl)-3-hydroxypropyl)-5-methylpyrimidine-4-carboxamide] gave an IC50 [1, 6] of 20 to 200 nM and an IC50 [2, 5] of 20 to 200 nM.
`COc1ncc(-c2ccn3nc(N)nc3c2)cc1C(=O)NCc1cc(F)ccc1OCC(F)(F)F` [Example 339, 5-(2-amino-[1,2,4]triazolo[1,5-a]pyridin-7-yl)-N-(5-fluoro-2-(2,2,2-trifluoroethoxy)benzyl)-2-methoxynicotinamide] was tested, and the IC50 [1, 3] was under 20 nM and the IC50 [2, 4] was under 20 nM.
`CCOc1ncc(-c2ccn3nc(N)nc3c2)cc1C(=O)NCc1ccccc1OC1CCCC1` [Example 267, 5-{2-amino-[1,2,4]triazolo[1,5-a]pyridin-7-yl}-N-{[2-(cyclopentyloxy)phenyl]methyl}-2-ethoxypyridine-3-carboxamide] gave an IC50 [1, 3] of under 20 nM and an IC50 [2, 5] of 20 to 200 nM.
Work on `COc1ncc(-c2ccn3nc(N)nc3c2)cc1C(=O)NCc1cc(F)cc(F)c1OC1CC(C)OC(C)C1` (stereo not shown) [Example 362, 5-(2-amino-[1,2,4]triazolo[1,5-a]pyridin-7-yl)-N-(2-((2,6-dimethyltetrahydro-2H-pyran-4-yl)oxy)-3,5-difluorobenzyl)-2-methoxynicotinamide] yielded an IC50 [1, 6] of 20 to 200 nM and an IC50 [2, 5] of 20 to 200 nM.
In the case of `COc1nc(C)c(-c2ccn3nc(N)nc3c2)cc1C(=O)NCc1c(F)cc(F)cc1OCC1CCCC1` [Example 202, 5-{2-amino-[1,2,4]triazolo[1,5-a]pyridin-7-yl}-N-{[2-(cyclopentylmethoxy)-4,6-difluorophenyl]methyl}-2-methoxy-6-methylpyridine-3-carboxamide], the IC50 [1, 3] is reported as under 20 nM and the IC50 [2, 5] is reported as 20 to 200 nM.
With `COc1ncc(-c2ccn3nc(N)nc3c2)cc1C(=O)N[C@H]1C[C@@H]1c1ccccc1` [Example 100, 5-{2-amino-[1,2,4]triazolo[1,5-a]pyridin-7-yl}-2-methoxy-N-[(1S,2R)-2-phenylcyclopropyl]pyridine-3-carboxamide] the IC50 [1, 6] was 20 to 200 nM and the IC50 [2, 7] was over 200 nM.
`COc1ncc(-c2ccn3nc(N)nc3c2)cc1C(=O)NCc1ccccc1C(=O)N1CCC(F)(F)C1` [Example 377, 5-(2-amino-[1,2,4]triazolo[1,5-a]pyridin-7-yl)-N-(2-(3,3-difluoropyrrolidine-1-carbonyl)benzyl)-2-methoxynicotinamide] gave an IC50 [1, 6] of 20 to 200 nM and an IC50 [2, 5] of 20 to 200 nM.
Work on `COc1nc(C)c(-c2ccn3nc(N)nc3c2)cc1C(=O)NCc1ncccc1OCC1CC1` [Example 33, 5-{2-Amino-[1,2,4]triazolo[1,5-a]pyridin-7-yl}-N-{[3-(cyclopropylmethoxy)pyridin-2-yl]methyl}-2-methoxy-6-methylpyridine-3-carboxamide] yielded an IC50 [1, 3] of under 20 nM and an IC50 [2, 5] of 20 to 200 nM.
With `Nc1nc2cc(-c3cnc(N)c(C(=O)NCc4c(F)cccc4OCC4CC4)c3)ccn2n1` [Example 53, 2-Amino-5-{2-amino-[1,2,4]triazolo[1,5-a]pyridin-7-yl}-N-{[2-(cyclopropylmethoxy)-6-fluorophenyl]methyl}pyridine-3-carboxamide] the IC50 [1, 3] was under 20 nM and the IC50 [2, 5] was 20 to 200 nM.
`COc1ncc(-c2ccn3nc(N)nc3c2)cc1C(=O)NCc1cccc(OC(C)C)c1` [Example 139, 5-{2-amino-[1,2,4]triazolo[1,5-a]pyridin-7-yl}-2-methoxy-N-{[3-(propan-2-yloxy)phenyl]methyl}pyridine-3-carboxamide] showed an IC50 [1, 3] of under 20 nM and an IC50 [2, 5] of 20 to 200 nM.
`COc1ncc(-c2ccn3nc(N)nc3c2)cc1C(=O)NCc1cc(F)cc(F)c1O[C@H]1CCOC1` [Example 360, (S)-5-(2-amino-[1,2,4]triazolo[1,5-a]pyridin-7-yl)-N-(3,5-difluoro-2-((tetrahydrofuran-3-yl)oxy)benzyl)-2-methoxynicotinamide] was tested, and the IC50 [1, 3] was under 20 nM and the IC50 [2, 5] was 20 to 200 nM.
`COc1nc(C)c(-c2ccn3nc(N)nc3c2)cc1C(=O)NCc1cc(F)cc(F)c1OCC1CC1` [Example 9, 5-{2-Amino-[1,2,4]triazolo[1,5-a]pyridin-7-yl}-N-{[2-(cyclopropylmethoxy)-3,5-difluorophenyl]methyl}-2-methoxy-6-methylpyridine-3-carboxamide] showed an IC50 [1, 3] of under 20 nM and an IC50 [2, 4] of under 20 nM.
Work on `COc1nc(C)c(-c2ccn3nc(N)nc3c2)cc1C(=O)NCc1ccccc1OCC1CC(=O)C1` [Example 3, 5-{2-Amino-[1,2,4]triazolo[1,5-a]pyridin-7-yl}-2-methoxy-6-methyl-N-({2-[(3-oxocyclobutyl)methoxy]phenyl}methyl)pyridine-3-carboxamide] yielded an IC50 [1, 6] of 20 to 200 nM and an IC50 [2, 5] of 20 to 200 nM.
